We go through 12 compounds from paper PMC8205030, “Methoxy and bromo scans on N-(5-methoxyphenyl) methoxybenzenesulphonamides reveal potent cytotoxic compounds, especially against the human breast adenocarcinoma MCF7 cell line” (Journal of Enzyme Inhibition and Medicinal Chemistry, 2021).

≈ marks a conversion by molar mass, not a printed value. Like-named read-outs stand apart in the source and are kept apart here.

The subject of series [1] is MCF7 (human breast carcinoma) cells. Put plainly: Cell growth assay (XTT), MCF7. Particulars: Homo sapiens, MCF7; 72 h drug exposure, XTT; read-out: Antiproliferative activity IC50 MCF7. The series is classed as cell-based. The method, then: (§1) The presence of mycoplasma was routinely checked with MycoAlert kit (Lonza-Cambrex) and only mycoplasma-free cells were used in the experiments. Tumour cell lines were kindly provided by Dr Faustino Mollinedo from Centro de Investigaciones Biológicas Margarita Salas, Madrid, Spain. To determine cell growth, cells in exponential growth phase were seeded (100 µL/well in 96-well plates) with appropriate cell concentration (1.5 × 10^4 cells/mL for MCF7, HeLa and HEK-293 and 3 × 10^4 cells/mL for HT-29) in complete DMEM or RPMI 1640 medium (see above) at 37 °C and 5% CO2 atmosphere. After 24 h incubation, to allow cells to attach to the plates, all compounds were added at 1 µM concentration (10 µL/well in 96-well plates) and the effect on the proliferation was evaluated 72 h post-treatment. Compounds showing antiproliferative effects at tested concentration were selected for IC50 calculation (50% inhibitory concentration compared to the untreated controls) from 10^−5 to 10^−10 M concentration. Nonlinear curves fitting the experimental data were carried out for each compound. […] A freshly prepared mixture solution of XTT labelling reagent with 0.02% (v/v) PMS (N-methyl-dibenzopyrazine methyl sulfate) electron coupling reagent was added to cells (50 µL/well in 96-well plates, the total volume of 160 µL/well) and were incubated during the corresponding time according to each cell line (4 h for MCF7 and HeLa and 6 h for HT-29 and HEK-293) in a humidified atmosphere (37 °C, 5% CO2). The absorbance of the formazan product generated was measured at a test wavelength of 450 nm using a multi-well plate reader (Ultra Evolution, Tecan, Männedorf, Suiza). Compounds were dissolved in DMSO and the final solvent concentrations never exceeded 0.5% (v/v). The control wells included treated cells with 0.5% (v/v) DMSO and the positive control. 10 µM verapamil was included as a control for the HT-29 cell line. Measurements were performed in triplicate, and each experiment was repeated three times.
Background: Tetrazolium assays rely on reduction of a dye to a coloured formazan, in cell work by metabolically active cells.

Series [2] has as its system HT-29 (human colon carcinoma) cells. Kind of series: Cell growth assay (XTT), HT-29, alone or with verapamil. The series is classed as cell-based. The method, then:
as §1, with “Compounds showing antiproliferative effects at tested concentration were selected for IC50 calculation (50% inhibitory concentration compared to the untreated controls) from 10^−5 to 10^−10 M concentration.” left out

Series [3] addresses T1, microtubular protein isolated from calf brain (Bos taurus, UniProt P81947+Q6B856).
T1 construct: isolated from calf brain according to the modified Shelanski method; from tissue; host or cells: calf brain
Put plainly: Inhibition of tubulin polymerisation (turbidity). The format is biochemical. Particulars: for TPI % 10 µM: 10 µM compound, 1.5 mg/mL microtubular protein; for IC50: in vitro tubulin polymerisation inhibition, read-out: TPI IC50. As to the method: Microtubular protein was isolated from calf brain according to the modified Shelanski method[23]^,[24] by two cycles of temperature-dependent assembly/disassembly and stored at −80 °C. Before each use, protein concentration is determined by Bradford method[25] taking BSA as standard. Tubulin polymerisation was monitored using a Helios α spectrophotometer by measuring the increase in turbidity at 450 nm, caused by a shift from 4 °C to 37 °C, which allows the in vitro microtubular protein to depolymerise and to polymerise, respectively. The assay was carried out in quartz cuvettes containing 1.5 mg/mL microtubular protein and the ligand (except for control cuvette with only DMSO at the same concentration) in a mixture of 0.1 M MES buffer, 1 mM EGTA, 1 mM MgCl2, 1 mM β-ME, and 1.5 mM GTP at pH 6.7 (final volume 500 µL). Cuvettes were preincubated at 20 °C for 30 min, to allow ligand binding to tubulin, and subsequently cooled on ice for 10 min. Then, the experiment starts at 4 °C to establish the initial baseline. The assembly process was initiated by a temperature shift to 37 °C and the turbidity produced by tubulin polymerisation can be measured by an absorbance increase. After reaching a stable plateau, the temperature was switched back to 4 °C to return to the initial absorption values (to confirm the reversible nature of the monitored process and to determine whether or not the microtubular protein has stabilized). The difference in amplitude between the stable plateau and the initial baseline of the curves was taken as the degree of tubulin polymerisation for each experiment. […] All compounds were tested at 10 µM concentration. IC50 values were calculated for compounds that inhibit tubulin polymerisation more than 50% at 10 µM. […] All the measurements were carried out in at least two independent experiments using microtubular protein from different preparations.

The subject of series [4] is HeLa (human cervical carcinoma) cells. Put plainly: Cell growth assay (XTT), HeLa. The series is classed as cell-based. As to conditions: 72 h drug exposure, read-out: Antiproliferative activity IC50 HeLa. As to the method: as §1
A short description of series [5]: Aqueous solubility (saturation shake-flask, UV). The format is physicochemical. Particulars: pH 7.0 phosphate buffer, room temperature; for solubility at 48 h: aqueous buffer, thermodynamic from solid. As to the method: The aqueous solubility was determined in a Helios-α UV-320 Spectrophotometer Thermo-Spectronic, Thermo Fischer Scientific, Waltham, MA, USA) using an approach based on the saturation shake-flask method. 1–2 mg of each selected compound was suspended in 300 µL pH 7.0 buffer and stirred for 48 h at room temperature. The resulting mixture was filtered through a […] filter to discard the insoluble residues. A scan between 270 and 400 nm for the tested compound was performed and three wavelengths of maximum absorbance were selected. Calibration curves were performed at these wavelengths and the concentration in the supernatant was measured by UV absorbance. The final value was given as the average of the three measurements.

[6] abbreviates: Homo sapiens, HT-29, 72 h drug exposure, XTT, read-out: Antiproliferative activity IC50 HT-29.
Setting [7] is: 72 h, in the presence of Pgp/MDR1 inhibitor verapamil (10 µM), read-out: Antiproliferative activity IC50 HT-29 Verap.

T1 sequence (Q6B856 whole entry): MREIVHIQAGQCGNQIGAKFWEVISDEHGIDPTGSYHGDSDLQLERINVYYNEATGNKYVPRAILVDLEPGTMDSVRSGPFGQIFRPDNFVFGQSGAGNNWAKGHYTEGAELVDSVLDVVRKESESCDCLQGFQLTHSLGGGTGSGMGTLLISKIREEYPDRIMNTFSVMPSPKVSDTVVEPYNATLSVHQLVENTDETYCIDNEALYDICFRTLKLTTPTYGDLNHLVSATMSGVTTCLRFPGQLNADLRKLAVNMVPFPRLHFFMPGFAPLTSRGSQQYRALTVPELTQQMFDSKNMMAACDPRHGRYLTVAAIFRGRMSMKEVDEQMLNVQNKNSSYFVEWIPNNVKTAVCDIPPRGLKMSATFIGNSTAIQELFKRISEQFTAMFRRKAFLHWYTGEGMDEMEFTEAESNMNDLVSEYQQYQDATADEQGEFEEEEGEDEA
T1 sequence (P81947 whole entry): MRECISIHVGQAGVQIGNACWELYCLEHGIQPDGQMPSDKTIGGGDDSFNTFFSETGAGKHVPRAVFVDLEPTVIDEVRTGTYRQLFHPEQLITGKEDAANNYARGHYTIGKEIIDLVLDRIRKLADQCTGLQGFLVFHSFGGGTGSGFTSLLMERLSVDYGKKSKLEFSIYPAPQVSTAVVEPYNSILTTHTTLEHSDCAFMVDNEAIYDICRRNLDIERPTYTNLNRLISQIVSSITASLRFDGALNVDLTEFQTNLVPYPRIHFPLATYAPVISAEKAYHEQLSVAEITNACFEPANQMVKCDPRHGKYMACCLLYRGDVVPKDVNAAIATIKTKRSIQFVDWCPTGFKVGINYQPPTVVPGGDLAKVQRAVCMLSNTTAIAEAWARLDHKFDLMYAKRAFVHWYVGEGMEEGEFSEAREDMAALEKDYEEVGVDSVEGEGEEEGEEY

The term IC50 denotes the concentration that gives 50% inhibition. By melting point is commonly meant the temperature of the solid-liquid transition. `COc1ccc(S(=O)(=O)Nc2cc(OC)cc(OC)c2)cc1` [Compound 1, N-(3,5-dimethoxyphenyl)-4-methoxybenzenesulphonamide] displayed a melting point of 115 to 122 °C. Further, the 50% inhibitory concentration (IC50) in series [1] was greater than 1000 nM. Further, the half-inhibitory concentration (IC50) in series [2] (setting [6]) was greater than 1000 nM. In addition, in series [3], the “TPI % 10 µM” value was determined as 0% and the IC50 was greater than 10000 nM. Further, the half-inhibitory concentration (IC50) in series [4] is greater than 1000 nM.
The compound `CCOC(=O)CN(c1cc(OC)c(OC)cc1Br)S(=O)(=O)c1ccc(OC)cc1` [Compound 17, Ethyl N-(2-bromo-4,5-dimethoxyphenyl)-N-((4-methoxyphenyl)sulphonyl)glycinate] returned a melting point of 116 to 126 °C. For the same compound, the IC50 in series [1] was greater than 1000 nM. Besides, the IC50 in series [2] (setting [6]) was greater than 1000 nM. In addition, in series [3], the “TPI % 10 µM” value stood at 0% and the 50% inhibitory concentration (IC50) was greater than 10000 nM. Also, the IC50 in series [4] was greater than 1000 nM.
Broadly, the solubility is how much of the substance goes into solution per volume. With `CCN(c1cc(OC)c(OC)cc1OC)S(=O)(=O)c1ccc(OC)cc1` [Compound 34, N-ethyl-4-methoxy-N-(2,4,5-trimethoxyphenyl)benzenesulphonamide], the IC50 is 715 nM in series [1]; 1070 nM in series [2] (setting [7]); 500 nM in series [2] (setting [6]); greater than 10000 nM in series [3]; 313 nM in series [4]. The “TPI % 10 µM” value in series [3] is 19%. Also, in series [5], the solubility at 48 h worked out at 122 µg/mL (≈ 320 µM).
`COc1ccc(S(=O)(=O)N(C(=O)OCc2ccccc2)c2cc(OC)cc(OC)c2)cc1` [Compound 7, Benzyl (3,5-dimethoxyphenyl)((4-methoxyphenyl)sulphonyl)carbamate] yielded a melting point of 129 to 131 °C. Besides, in series [1], the 50% inhibitory concentration (IC50) was greater than 1000 nM. The IC50 in series [2] (setting [6]) was greater than 1000 nM. Also, in series [3], the “TPI % 10 µM” value was 0% and the half-maximal inhibitory concentration (IC50) is greater than 10000 nM. Further, in series [4], the IC50 is greater than 1000 nM.
Take `CCN(c1cc(OC)cc(OC)c1Br)S(=O)(=O)c1ccc(OC)cc1` [Compound 9b, N-(2-bromo-3,5-dimethoxyphenyl)-N-ethyl-4-methoxybenzenesulphonamide]: the melting point fell in the range of 141 to 144 °C. Moreover, in series [1], the half-maximal inhibitory concentration (IC50) is greater than 1000 nM. For the same compound, the IC50 in series [2] (setting [6]) is greater than 1000 nM. For the same compound, in series [3], the “TPI % 10 µM” value came to 0% and the IC50 is greater than 10000 nM. Besides, in series [4], the half-maximal inhibitory concentration (IC50) is greater than 1000 nM.
`COc1ccc(S(=O)(=O)N(Cc2ccccc2)c2cc(OC)cc(OC)c2)cc1` [Compound 6, N-benzyl-N-(3,5-dimethoxyphenyl)-4-methoxybenzenesulphonamide] had a melting point of 146 to 150 °C. Moreover, in series [1], the IC50 was greater than 1000 nM. Moreover, in series [2] (setting [6]), the IC50 was greater than 1000 nM. Besides, in series [3], the “TPI % 10 µM” value is reported as 0% and the IC50 is greater than 10000 nM. Further, the IC50 in series [4] was greater than 1000 nM.
Compound `COc1ccc(S(=O)(=O)N(CC#N)c2cc(OC)cc(OC)c2)cc1` [Compound 4, N-(cyanomethyl)-N-(3,5-dimethoxyphenyl)-4-methoxybenzenesulphonamide] yielded a melting point of 92 to 96 °C. In addition, the IC50 in series [1] is greater than 1000 nM. For the same compound, the IC50 in series [2] (setting [6]) was greater than 1000 nM. In series [3], the “TPI % 10 µM” value is on record as 0% and the concentration for half-maximal inhibition (IC50) is greater than 10000 nM. In addition, the half-maximal inhibitory concentration (IC50) in series [4] was greater than 1000 nM.
`COc1ccc(S(=O)(=O)N(C)c2cc(OC)cc(OC)c2Br)cc1` [Compound 8b, N-(2-bromo-3,5-dimethoxyphenyl)-4-methoxy-N-methylbenzenesulphonamide] gave a melting point of 156 to 160 °C. Also, the half-maximal inhibitory concentration (IC50) in series [1] was greater than 1000 nM. Besides, in series [2] (setting [6]), the concentration for half-maximal inhibition (IC50) is greater than 1000 nM. For the same compound, in series [3], the “TPI % 10 µM” value worked out at 0% and the concentration for half-maximal inhibition (IC50) is greater than 10000 nM. In addition, the IC50 in series [4] was greater than 1000 nM.
For the compound `CCN(c1cc(OC)cc(OC)c1)S(=O)(=O)c1ccc(OC)cc1` [Compound 3, N-(3,5-dimethoxyphenyl)-N-ethyl-4-methoxybenzenesulphonamide], the melting point lay in the range of 109 to 118 °C. Further, the half-maximal inhibitory concentration (IC50) in series [1] is greater than 1000 nM. The 50% inhibitory concentration (IC50) in series [2] (setting [6]) is greater than 1000 nM. In series [3], the “TPI % 10 µM” value is 0% and the IC50 was greater than 10000 nM. The half-inhibitory concentration (IC50) in series [4] is greater than 1000 nM.
Broadly, the Aqueous solubility is how much of the substance goes into solution per volume. The low end stands for a poorly soluble substance, the high end for a readily soluble substance. As for `COc1ccc(/C=C\c2cc(OC)c(OC)c(OC)c2)cc1O` [Combretastatin A-4, combretastatin A-4, reference compound], the 50% inhibitory concentration (IC50) was determined as 1 nM in series [1], 327 nM in series [2] (setting [7]), 305 nM in series [2] (setting [6]) and 2 nM in series [4]. Further, the “Difference of IC50 values HeLa vs HT-29” value in series [2] is given as greater than 100 fold. Further, the “TPI % 10 µM” value in series [3] was 100%. Also, the Aqueous solubility in series [5] (48 h) was 1 µg/mL.
With `COc1ccc(S(=O)(=O)N(C)c2ccc(OC)c(OC)c2)cc1` [Compound 12, N-(3,4-dimethoxyphenyl)-4-methoxy-N-methylbenzenesulphonamide], the IC50 in series [1] was greater than 1000 nM; in series [2] (setting [6]), greater than 1000 nM; in series [3] it was greater than 10000 nM; in series [4], greater than 1000 nM. In addition, the “TPI % 10 µM” value in series [3] stood at 0%. Further, in series [5], the solubility at 48 h worked out at 70 µg/mL (≈ 207 µM).
Turning to `COc1ccc(S(=O)(=O)N(CC(=O)O)c2cc(OC)c(Br)cc2OC)cc1` [Compound 29, N-(4-bromo-2,5-dimethoxyphenyl)-N-((4-methoxyphenyl)sulphonyl)glycine], the melting point is 180 to 184 °C. For the same compound, the half-inhibitory concentration (IC50) in series [1] is greater than 1000 nM. The 50% inhibitory concentration (IC50) in series [2] (setting [6]) was greater than 1000 nM. In series [3], the “TPI % 10 µM” value was determined as 8% and the concentration for half-maximal inhibition (IC50) is greater than 10000 nM. Besides, the IC50 in series [4] is greater than 1000 nM.
